Measured values published in publication PMC10573892, “β-Lactam TRPM8 Antagonists Derived from Phe-Phenylalaninol Conjugates: Structure–Activity Relationships and Antiallodynic Activity” (International Journal of Molecular Sciences, 2023).

Columns and labels:
[1] = target: T1, hTRPV1 (Homo sapiens, UniProt Q8NER1); assay: TRPV1 channel Ca2+ microfluorimetry (capsaicin 30 nM); assay type: cell-based
T1 construct: Eurofins-CEREP or Eurofins-PANLABS (contract assay)
Description: (§1) The effects of compound 34 have been evaluated on different ion channels and receptors implicated in pain-related processes to assess the selectivity for TRPM8 channels. First, some TRP channels that play a role in temperature integration and nociception were selected, including hTRPV1, hTRPV3, hTRPA1 and TRPM3. Additionally, the evaluation encompassed the hASIC3 channel with widespread distribution within the peripheral nervous system and contributions to the excitability of primary sensory neurons. In each instance, the compound was subjected to evaluation at a consistent concentration of 10 µM.
(§2) Calcium fluorometry, Patch-Clamp assays and in vivo experiments were performed using the methodology previously described for TRPM8 [35] or TRPM3 [61]. In the Patch -Clamp experiments, the intracellular pipette solution contained (in mM) 140 KCl, 5 EGTA, and 10 mM HEPES, adjusted to pH 7.2 with KOH, and the extracellular solution contained (in mM) 140 NaCl, 2 CaCl2, 1 MgCl2, 10 D-glucose and 10 HEPES, adjusted to pH 7.4 with NaOH. Selectivity against TRPV1, TRPV3, TRPA1 and ASIC3 was subcontracted to Eurofins-CEREP or Eurofins-PANLABS (see ref. [35] for more details).

[2] = target: hTRPM3 (Homo sapiens, UniProt Q9HCF6); assay: TRPM3 channel Ca2+ microfluorimetry (pregnenolone sulfate 50 µM); assay type: cell-based; conditions: 10 μM; agonist pregnenolone sulfate 50 µM; read-out: % Channel Inhibition at 10 μM hTRPM3
Procedure: as §1, with “First,” for “The effects of compound 34 have been evaluated on different ion channels and receptors implicated in pain-related processes to assess the selectivity for TRPM8 channels. First,”
as §2

[3] = test system: oxaliplatin-induced cold hypersensitivity; assay: Oxaliplatin-induced cold allodynia in mice (acetone drop test); assay type: in vivo
Description: It is established that treatments with the chemotherapeutic drug oxaliplatin (OXA) induce painful peripheral neuropathy, known as CIPN, which becomes more pronounced in cold conditions. The TRPM8 channel has been implicated in mouse models of CIPN pain induced by OXA [19, 51]. In fact, the OXA-induced peripheral neuropathy mouse model is being used for the pharmacological characterization of TRPM8 antagonists. For this peripheral neuropathy assay, mice were subcutaneously (s.c.) injected with OXA at a dose of 6 mg/kg dose on days 1, 3 and 5 to male mice to induce increased sensitivity to cold, which can be monitored through the acetone drop test.
Consequently, compounds 34 and 35 have been tested for their ability to alleviate OXA-induced cold hypersensitivity after intraplantar administration (i.pl., 3, 1 and 0.1 μg). […] This effect was observed 15 min post-administration and sustained up to 60 min.
as §2
Figure 4 Effects of compounds 34 (A) and 35 (B) on the oxaliplatin (OXP)-induced cold hypersensitivity (drop acetone test). Peripheral neuropathy was induced in male mice by injecting OXA (6 mg/kg, s.c.) on days 1, 3 and 5. Control animals were treated with vehicle. Compounds 34 (A) and 35 (B) (3 µg/i.pl., 1 µg/i.pl. and 0.1 µg/i.pl.) were administered to the OXP-treated animals, and the time-course of cold hypersensitivity was measured. Data are given ± SEM (n = 5). Statistical analysis, comparing with oxaliplatin-treated mice, was performed by two-way ANOVA followed by post hoc Bonferroni test by multiple comparisons: * […], ** p < 0.01, **** p < 0.0001.

[4] = target: T2, hTRPM8 (Homo sapiens, UniProt Q7Z2W7); assay: Ca2+ microfluorimetry in HEK293 cells expressing human TRPM8; assay type: cell-based; conditions: activation by 100 µM menthol; read-out: Ca^2+ Microfluorimetry Assays hTRPM8 IC50
T2 construct: expressed in transfected cells; host or cells: HEK293
Procedure: To further characterize this family of compounds, calcium microfluorimetry assays were conducted using the HEK293 cell line, which expresses the human isoform of the TRPM8 channel. Amide derivatives 34 and 35 were selected, and their outcomes were compared with those of the model compound 1 (Table 4). […] This behavior is not particular of these β-lactams, but it is similar to those observed for other TRPM8 antagonists.
as §2

[5] = target: T3, hTRPV3 (Homo sapiens, UniProt Q8NET8); assay: TRPV3 channel Ca2+ microfluorimetry (2-APB 30 μM); assay type: cell-based; conditions: agonist 2-APB 30 μM
T3 construct: Eurofins-CEREP or Eurofins-PANLABS (contract assay)
T3 sequence (Q8NET8 1-790): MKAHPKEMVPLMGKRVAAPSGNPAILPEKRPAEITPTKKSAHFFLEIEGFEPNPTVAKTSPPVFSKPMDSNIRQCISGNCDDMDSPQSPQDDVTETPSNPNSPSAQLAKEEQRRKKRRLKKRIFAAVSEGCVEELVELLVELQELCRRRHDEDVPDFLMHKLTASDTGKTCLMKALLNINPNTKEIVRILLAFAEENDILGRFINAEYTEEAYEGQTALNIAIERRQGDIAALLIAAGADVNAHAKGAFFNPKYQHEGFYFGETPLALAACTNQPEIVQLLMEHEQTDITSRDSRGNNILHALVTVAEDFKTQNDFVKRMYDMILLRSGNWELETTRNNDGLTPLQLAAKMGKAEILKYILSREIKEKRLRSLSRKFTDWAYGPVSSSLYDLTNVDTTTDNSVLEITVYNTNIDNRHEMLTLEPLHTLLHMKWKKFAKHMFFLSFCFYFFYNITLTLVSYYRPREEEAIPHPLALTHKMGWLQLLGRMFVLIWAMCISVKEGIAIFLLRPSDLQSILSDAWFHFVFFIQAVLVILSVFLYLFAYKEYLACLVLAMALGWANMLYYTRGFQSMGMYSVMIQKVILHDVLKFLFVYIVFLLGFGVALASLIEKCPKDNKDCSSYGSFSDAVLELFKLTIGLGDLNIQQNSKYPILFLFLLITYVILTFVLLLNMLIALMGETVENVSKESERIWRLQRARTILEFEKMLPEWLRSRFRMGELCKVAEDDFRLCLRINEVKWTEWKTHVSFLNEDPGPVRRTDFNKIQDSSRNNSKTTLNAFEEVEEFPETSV
Description: as §1, §2

T1 sequence (Q8NER1 whole entry): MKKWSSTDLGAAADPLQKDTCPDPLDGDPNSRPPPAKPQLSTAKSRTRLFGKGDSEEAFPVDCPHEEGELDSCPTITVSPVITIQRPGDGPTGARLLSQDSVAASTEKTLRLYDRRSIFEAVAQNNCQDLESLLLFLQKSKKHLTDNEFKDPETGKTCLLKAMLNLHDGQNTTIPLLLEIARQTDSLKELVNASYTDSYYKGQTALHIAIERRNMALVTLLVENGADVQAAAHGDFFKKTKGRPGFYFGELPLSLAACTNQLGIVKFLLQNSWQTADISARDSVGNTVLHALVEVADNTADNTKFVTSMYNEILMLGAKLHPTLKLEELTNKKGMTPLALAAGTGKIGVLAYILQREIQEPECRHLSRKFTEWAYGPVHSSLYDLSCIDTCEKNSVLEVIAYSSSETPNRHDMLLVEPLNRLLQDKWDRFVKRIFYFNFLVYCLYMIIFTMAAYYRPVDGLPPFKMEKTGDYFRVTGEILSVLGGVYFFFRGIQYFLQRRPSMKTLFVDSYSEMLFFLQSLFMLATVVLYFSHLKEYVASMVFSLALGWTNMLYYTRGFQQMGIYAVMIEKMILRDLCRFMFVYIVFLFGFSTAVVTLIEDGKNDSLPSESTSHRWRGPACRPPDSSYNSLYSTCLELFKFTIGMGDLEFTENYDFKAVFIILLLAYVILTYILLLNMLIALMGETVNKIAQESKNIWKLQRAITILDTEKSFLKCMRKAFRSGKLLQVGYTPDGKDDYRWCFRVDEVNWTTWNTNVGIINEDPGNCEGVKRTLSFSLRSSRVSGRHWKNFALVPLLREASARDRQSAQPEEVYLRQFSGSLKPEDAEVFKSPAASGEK
T2 sequence (Q7Z2W7 whole entry): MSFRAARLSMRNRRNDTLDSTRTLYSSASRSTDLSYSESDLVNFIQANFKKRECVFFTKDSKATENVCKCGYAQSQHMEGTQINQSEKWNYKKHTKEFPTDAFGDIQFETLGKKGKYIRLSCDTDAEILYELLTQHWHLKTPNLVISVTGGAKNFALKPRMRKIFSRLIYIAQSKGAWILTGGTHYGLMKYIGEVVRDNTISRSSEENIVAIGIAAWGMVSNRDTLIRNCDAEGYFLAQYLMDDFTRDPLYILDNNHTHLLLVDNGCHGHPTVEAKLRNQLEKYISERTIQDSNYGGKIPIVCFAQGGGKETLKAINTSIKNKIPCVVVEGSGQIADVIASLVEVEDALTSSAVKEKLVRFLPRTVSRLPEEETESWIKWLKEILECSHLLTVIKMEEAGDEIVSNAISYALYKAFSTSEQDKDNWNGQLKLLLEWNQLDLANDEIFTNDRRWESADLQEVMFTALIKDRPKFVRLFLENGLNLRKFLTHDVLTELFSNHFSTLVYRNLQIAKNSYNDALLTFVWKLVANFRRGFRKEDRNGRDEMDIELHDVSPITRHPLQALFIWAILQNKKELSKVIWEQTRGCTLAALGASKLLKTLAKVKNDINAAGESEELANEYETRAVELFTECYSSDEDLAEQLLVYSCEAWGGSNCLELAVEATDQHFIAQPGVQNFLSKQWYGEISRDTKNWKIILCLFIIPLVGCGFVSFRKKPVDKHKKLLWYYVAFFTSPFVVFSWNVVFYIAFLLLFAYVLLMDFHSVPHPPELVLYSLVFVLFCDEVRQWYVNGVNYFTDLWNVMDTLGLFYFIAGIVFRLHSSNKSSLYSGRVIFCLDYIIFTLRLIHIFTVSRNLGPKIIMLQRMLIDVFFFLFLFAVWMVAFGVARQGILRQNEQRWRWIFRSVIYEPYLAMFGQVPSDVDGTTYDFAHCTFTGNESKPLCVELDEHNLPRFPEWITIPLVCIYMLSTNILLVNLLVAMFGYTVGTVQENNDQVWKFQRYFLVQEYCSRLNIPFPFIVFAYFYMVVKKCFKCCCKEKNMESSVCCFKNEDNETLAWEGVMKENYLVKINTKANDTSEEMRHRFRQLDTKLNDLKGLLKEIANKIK
Chain of hTRPM3 (Q9HCF6 whole entry): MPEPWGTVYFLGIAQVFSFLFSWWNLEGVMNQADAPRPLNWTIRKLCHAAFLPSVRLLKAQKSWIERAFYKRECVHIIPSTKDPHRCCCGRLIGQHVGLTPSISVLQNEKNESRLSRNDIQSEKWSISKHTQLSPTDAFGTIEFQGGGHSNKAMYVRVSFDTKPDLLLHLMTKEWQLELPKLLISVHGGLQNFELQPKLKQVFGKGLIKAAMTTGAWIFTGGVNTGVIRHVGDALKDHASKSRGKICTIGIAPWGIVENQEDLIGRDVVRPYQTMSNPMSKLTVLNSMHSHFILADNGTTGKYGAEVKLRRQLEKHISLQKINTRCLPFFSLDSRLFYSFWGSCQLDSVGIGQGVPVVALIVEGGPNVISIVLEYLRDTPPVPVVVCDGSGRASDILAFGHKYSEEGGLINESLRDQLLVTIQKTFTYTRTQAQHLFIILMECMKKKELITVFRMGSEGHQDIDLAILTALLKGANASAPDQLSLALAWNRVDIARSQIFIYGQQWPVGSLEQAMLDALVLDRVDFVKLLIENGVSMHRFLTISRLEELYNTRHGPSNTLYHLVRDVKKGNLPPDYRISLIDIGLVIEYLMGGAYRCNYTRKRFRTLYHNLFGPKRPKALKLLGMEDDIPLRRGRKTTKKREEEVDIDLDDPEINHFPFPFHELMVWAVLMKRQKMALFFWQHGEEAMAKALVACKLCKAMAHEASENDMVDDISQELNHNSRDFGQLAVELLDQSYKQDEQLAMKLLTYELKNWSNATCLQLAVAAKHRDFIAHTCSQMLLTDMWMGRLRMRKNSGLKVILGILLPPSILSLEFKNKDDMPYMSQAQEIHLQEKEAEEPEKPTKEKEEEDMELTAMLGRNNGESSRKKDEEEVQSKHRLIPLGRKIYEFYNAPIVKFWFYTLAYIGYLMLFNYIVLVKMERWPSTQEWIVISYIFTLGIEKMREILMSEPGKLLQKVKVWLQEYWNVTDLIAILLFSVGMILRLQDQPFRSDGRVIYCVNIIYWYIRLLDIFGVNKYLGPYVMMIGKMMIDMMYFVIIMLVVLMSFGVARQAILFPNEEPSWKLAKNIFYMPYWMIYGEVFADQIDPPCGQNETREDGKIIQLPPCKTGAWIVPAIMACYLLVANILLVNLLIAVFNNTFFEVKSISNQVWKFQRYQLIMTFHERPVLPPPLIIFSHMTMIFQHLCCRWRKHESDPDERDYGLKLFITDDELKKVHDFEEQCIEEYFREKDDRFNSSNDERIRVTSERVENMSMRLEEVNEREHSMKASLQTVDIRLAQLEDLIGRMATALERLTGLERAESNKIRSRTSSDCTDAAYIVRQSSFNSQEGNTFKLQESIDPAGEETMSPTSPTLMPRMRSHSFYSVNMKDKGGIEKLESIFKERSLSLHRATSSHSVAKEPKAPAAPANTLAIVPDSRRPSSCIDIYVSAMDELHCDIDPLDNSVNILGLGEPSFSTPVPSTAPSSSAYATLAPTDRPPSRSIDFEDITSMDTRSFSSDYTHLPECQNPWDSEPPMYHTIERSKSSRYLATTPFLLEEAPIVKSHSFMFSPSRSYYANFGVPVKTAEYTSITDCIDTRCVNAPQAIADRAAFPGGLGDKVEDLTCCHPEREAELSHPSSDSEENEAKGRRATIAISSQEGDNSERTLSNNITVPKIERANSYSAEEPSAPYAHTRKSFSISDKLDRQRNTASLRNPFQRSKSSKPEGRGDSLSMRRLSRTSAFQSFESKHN

activation on the TRPV1 channel ([1]; 10 µM): did not show activation
inhibition at 10 µM ([1]; 10 μM, agonist capsaicin 30 nM): 8.9 ± 2.9%
inhibition at 10 µM [2]: 6.9 ± 10.7%
IC50 [4]: 2580 ± 1240 nM
inhibition at 10 µM [5]: 17.3 ± 5.7%
SMILES: CC(C)CNC(=O)[C@]1(Cc2ccccc2)[C@H](C)C(=O)N1C[C@H](Cc1ccccc1)N(Cc1ccccc1)Cc1ccccc1 [Compound 34, 4S-Benzyl-4-[N-(iso-butyl)-carbamoyl]-3S-methyl-1-[(2′S-dibenzylamino-3′-phenyl)prop-1′-yl]-2-oxoazetidine]
time the antiallodynic effect is sustained ([3]; i.pl., observed from 15 min post-administration): up to 60 min
effect on cold-induced paw licking ([3]; male mice, OXA 6 mg/kg s.c. days 1, 3, 5, i.pl. 3, 1 and 0.1 μg): dose-dependent and significant reduction
